The values that follow come from patent US5643920A, “Tricyclic compound having anti-allergic activities” (Mochida Pharmaceutical Co., Ltd., priority 1992, dated 1997).

Molecules are shown by their SMILES. Like-named read-outs stand apart in the source and are kept apart here.

One series deals with IgE antibody production. The series is described as follows: Activity to inhibit the IgE antibody production in mice sensitized with egg albumin (ELISA of plasma IgE). The series is classed as in vivo, male BALB/c mice. As to conditions: Mus musculus, 240 h, oral, once a day for seven times, blood ten days after sensitization, BALB/c mice, read-out: Percentage of the IgE antibody production inhibited; for inhibition at 3 mg/kg: 3 mg/kg/day; for inhibition at 30 mg/kg: 30 mg/kg/day; for inhibition at 10 mg/kg: 10 mg/kg/day. On the procedure:
Groups of five male BALB/c mice (body weight: 20 to 25 g) each were sensitized by intraperitoneally injection with 4 mg of aluminum hydroxide to which absorbed 10 μg of egg albumin. The test compound is suspended in a gum arabic solution, and the suspensions of different concentrations were orally administered to the animals once a day for seven times in total from immediately after the sensitization. The gum arabic suspension having no test compound added was used for the control.
Blood was collected from the animal ten days after the sensitization, and the collected blood was evaluated for the amount of the IgE antibody produced by ELISA. In brief, the plasma sample was added to immobilized anti-mouse igE antibody, and then, reacting with the anti-mouse IgE antibody having labeled with horseradish peroxidase. The amount of the IgE antibody produced was calculated by using the activity of the horseradish peroxidase for the index (See Meneki-to-Shikkan (Immune and Diseases), 15, 211-216, 1988).
In Table 1, there are shown the amount of the test compounds administered and the percentage of the IgE antibody production inhibited calculated by equation 1: [formula]
For orientation: ELISA stands for enzyme-linked immunosorbent assay.

The subject of series [1] is sensitized rat peritoneal cells (histamine release). The series is described as follows: Activity to suppress the histamine release from passively sensitized rat peritoneal cells. The series is classed as cell-based, male Wistar rats. The settings on record: 10 min, egg albumin, ten minutes, read-out: Percentage of the histamine release suppressed; for inhibition at 10 µg/mL: 10 μg/ml; for inhibition at 3 µg/mL: 3 μg/ml. Here is the method: Peritoneal cells were collected from male Wistar rats (9 week-old) killed by exsanguination. The cells were washed by centrifugation, and passively sensitized with rat anti-egg albumin serum. 2×10^4 of the sensitized peritoneal cells (1×10^4 of the sensitized peritoneal cells in the case of the compound of Example 12) were reacted with the solution of the test compound (in 0.1% bovine serum albumin solution in HBSS (Hanks' balanced salt solution) containing 0.1% DMSO). Egg albumin was added as allergen, the reaction was allowed to take place for ten minutes. After the cease of the reaction, the amount of the histamine released was determined by post-column fluorometric assay using high-speed liquid chromatography.
The amount of the test compounds administered and the percentage of the histamine release suppressed calculated by equation 2 are shown in Table 2.
Example 123: 1-(4-chlorophenyl)-8,9-dihydro-7H-pyrrolo-[3,2,1-ij]quinolin-7-one tosylhydrazone. [formula]

The next series concerns mice. The series is described as follows: Acute toxicity, oral. The series is classed as in vivo. The settings on record: 1000 mg/kg oral, three mice per group, observed for 7 days. Here is the method: To groups of three mice each having a body weight of 20 to 30 g were orally administered 1000 mg/kg of the compounds of Examples 15 and 117 of the present invention.
The mark [2] stands for this setting: 2×10^4 sensitized peritoneal cells.

For `Clc1ccc(-c2cn3cccc4c3c2CCC4)cc1` [Example 3, 1-(4-chlorophenyl) -8,9-dihydro-7H-pyrrolo-[3,2,1-ij]quinoline], the inhibition at 3 mg/kg in the series with IgE antibody production amounted to 64%. Consider `NN=C1CCc2c(-c3ccc(Br)cc3)cn3cccc1c23` [Example 4, 1-(4-bromophenyl)-8,9-dihydro-7H-pyrrolo[3,2,1-ij]quinolin-7-one hydrazone], for which the inhibition at 30 mg/kg in the series with IgE antibody production was found to be 47%. In addition, the inhibition at 10 µg/mL in series [1] (setting [2]) worked out at 50%. Turning to `NC1CCc2c(-c3ccc(Cl)cc3)cn3cccc1c23` (centres unmarked) [Example 7, 7-amino-1-(4-chlorophenyl)-8,9-dihydro-7H-pyrrolo[3,2,1-ij]quinoline], the inhibition at 10 mg/kg in the series with IgE antibody production was 49%.

With `C=C1CCc2c(-c3ccc(Cl)cc3)cn3cccc1c23` [Example 9, 1-(4-chlorophenyl)-8,9-dihydro-7-methylene-7H-pyrrolo[3,2,1-ij]quinoline], the inhibition at 10 mg/kg in the series with IgE antibody production was determined as 65%. `OC1CCn2c(-c3ccc(Cl)cc3)nc3cccc1c32` (centres unmarked) [Example 12, 2-(4-chlorophenyl)-4,5-dihydro-6-hydroxy-6H-imidazo[4,5,1-ij]quinoline]: the inhibition at 10 µg/mL in series [1] (1×10^4 sensitized peritoneal cells (Example 12)) is 49%. On to `CC(C)=NN=C1CCn2c(-c3ccc(Cl)cc3)nc3cccc1c32` [Example 14, 2-(4-chlorophenyl)-4,5-dihydro-6H-imidazo-[4,5,1-ij]quinolin-6-one isopropylidenehydrazone], for which the inhibition at 3 µg/mL in series [1] (setting [2]) worked out at 55%. Consider `NN=C1CCn2c(-c3ccc(Cl)cc3)nc3cccc1c32` [Example 15, 2-(4-chlorophenyl)-4,5-dihydro-6H-imidazo-[4,5,1-ij]quinolin-6-one hydrazone], for which the inhibition at 30 mg/kg with IgE antibody production is 53%. The inhibition at 1 µg/mL in series [1] (1 μg/ml, 2×10^4 sensitized peritoneal cells) worked out at 42%. The “death within 7 days (acute toxicity)” value in the series with mice is “no mouse was found dead”. On to `CON=C1CCn2c(-c3ccc(Cl)cc3)nc3cccc1c32` [Example 16, 2-(4-chlorophenyl)-4,5-dihydro-6-methoxyimino-6H-imidazo[4,5,1-ij]quinoline], for which the inhibition at 30 mg/kg with IgE antibody production was found to be 54%. For `Clc1ccc(-c2nc3cccc4c3n2CCC4=NNc2ccccc2)cc1` [Example 17, 2-(4-chlorophenyl)-4,5-dihydro-6H-imidazo-[4,5,1-ij]quinolin-6-one phenylhydrazone], the inhibition at 3 µg/mL in series [1] (setting [2]) was 40%. Take `NC1CCn2c(-c3ccc(C(F)(F)F)cc3)nc3cccc1c32` (centres unmarked) [Example 71, 6-amino-4,5-dihydro-2-(4-trifluoromethylphenyl)-imidazo[4,5,1-ij]quinoline]: in the series on IgE antibody production, the inhibition at 30 mg/kg is 78%. The same measure, in the same setting: to `O=C1CCc2c(-c3ccc(C(F)(F)F)cc3)cn3cccc1c23` [Example 81, 8,9-dihydro-1-(4-trifluoromethylphenyl)-7H-pyrrolo[3,2,1-ij]quinolin-7-one] belongs 61%; to `ON=C1CCc2c(-c3ccc(C(F)(F)F)cc3)cn3cccc1c23` [Example 92, 8,9-dihydro-1-(4-trifluoromethylphenyl)-7H-pyrrolo[3,2,1-ij]quinolin-7-oneoxi], 50%. For the compound `Fc1ccc(-c2cn3cccc4c3c2CCC4)cc1` [Example 99, 8,9-dihydro-1-(4-fluorophenyl)-7H-pyrrolo-[3,2,1-ij]quinoline], in the series with IgE antibody production, the inhibition at 3 mg/kg is 43%. In the case of `Brc1ccc(-c2cn3cccc4c3c2CCC4)cc1` [Example 100, 1-(4-bromophenyl)-8,9-dihydro-7H-pyrrolo-[3,2,1-ij]quinoline], the inhibition at 10 mg/kg in the series with IgE antibody production amounted to 77%. Still for that read-out and setting: to `c1ccc2cc(-c3cn4cccc5c4c3CCC5)ccc2c1` [Example 108, 8,9-dihydro-1-(2-naphthyl)-7H-pyrrolo[3,2,1-ij]quinoline] belongs 71%; to `Cc1ccc(-c2cn3cccc4c3c2CCC4)cc1` [Example 109, 8,9-dihydro-1-(4-methylphenyl)-7H-pyrrolo-[3,2,1-ij]quinoline], 45%. As to `NN=C1CCc2c(-c3ccc(Cl)cc3)cn3cccc1c23` [Example 117, 1-(4-chlorophenyl)-8,9-dihydro-7H-pyrrolo-[3,2,1-ij]quinolin-7-one hydrazone], the inhibition at 30 mg/kg in the series with IgE antibody production worked out at 44%. Moreover, the inhibition at 10 µg/mL in series [1] (setting [2]) came to 47%. Moreover, the “death within 7 days (acute toxicity)” value with mice is recorded as “no mouse was found dead”.

With `Clc1ccc(-c2cn3cccc4c3c2CCC4=NNc2ccccc2)cc1` [Example 119, 1-(4-chlorophenyl)-8,9-dihydro-7H-pyrrolo-[3,2,1-ij]quinolin-7-one phenylhydrazone], the inhibition at 3 µg/mL in series [1] (setting [2]) came to 42%.

Consider `CCOC(=O)C(=O)NC1CCc2c(-c3ccc(Cl)cc3)cn3cccc1c23` (centres unmarked) [Example 122, 1-(4-chlorophenyl)-8,9-dihydro-7-ethoxyoxalylamino-7H-pyrrolo[3,2,1-ij]quinoline], for which the inhibition at 10 µg/mL in series [1] (setting [2]) came to 98%. On to `Cc1ccc(S(=O)(=O)NN=C2CCc3c(-c4ccc(Cl)cc4)cn4cccc2c34)cc1` [Example 123, 1-(4-chlorophenyl)-8,9-dihydro-7H-pyrrolo-[3,2,1-ij]quinolin-7-one tosylhydrazone], for which the inhibition at 3 µg/mL in series [1] (setting [2]) turned out to be 33%. Regarding `CC(C)=NN=C1CCc2c(-c3ccc(Cl)cc3)cn3cccc1c23` [Example 124, 1-(4-chlorophenyl)-8,9-dihydro-7H-pyrrolo-[3,2,1-ij]quinolin-7-one isopropylidenehydrazone], the inhibition at 30 mg/kg in the series on IgE antibody production came out at 45%. Still for that read-out and setting: next, `FC(F)(F)c1ccc(-c2cn3cccc4c3c2CCC4)cc1` [Example 130, 8,9-dihydro-1-(4-trifluoromethylphenyl)-7H-pyrrolo[3,2,1-ij]quinoline]: 86%; `NC1CCc2c(-c3ccc(C(F)(F)F)cc3)cn3cccc1c23` (centres unmarked) [Example 132, 7-amino-8,9-dihydro-1-(4-trifluoromethylphenyl)-7H-pyrrolo[3,2,1-ij]quinoline]: 80%.

Consider `ON=C1CCn2c(-c3ccccc3)nc3cccc1c32` [Reference Example 30, 2-phenyl-4,5-dihydro-6H-imidazo-[4,5,1-ij]quinolin-6-one oxime], for which the inhibition at 30 mg/kg in the series on IgE antibody production was determined as 32%.

With `ON=C1CCn2c(-c3ccc(Br)cc3)nc3cccc1c32` [Reference Example 33, 2-(4-bromophenyl)-4,5-dihydro-6H-imidazo[4,5,1-ij]quinolin-6-one oxime], in the series with IgE antibody production, the inhibition at 30 mg/kg worked out at 41%. In the case of `ON=C1CCn2c(-c3ccc(C(F)(F)F)cc3)nc3cccc1c32` [Reference Example 34, 2-(4-trifluoromethylphenyl)-4,5-dihydro-6H-imidazo[4,5,1-ij]quinolin-6-oneoxime], the inhibition at 30 mg/kg in the series with IgE antibody production came to 32%. Same read-out and setting: to `ON=C1CCn2c(-c3ccc4ccccc4c3)nc3cccc1c32` [Reference Example 36, 2-(2-naphthyl)-4,5-dihydro-6H-imidazo[4,5,1-ij]quinolin-6-one oxime] belongs 50%.
